From US10124012B2, “Method for treatment of hyperglycemia and hyperlipidemia” (priority 2016, dated 2018)

Key:
membrane GLUT4 = assay: Membrane GLUT4 expression in C2C12 cells (Western blotting); format: cell-based; conditions: AnK 1, 5, 10 and 25 μg/mL 30 min, insulin 100 nM 25 min, vs CON group
Method: (§1) For the in vitro assay, C2C12 skeletal myoblasts (ATCC CRL-1772) were cultured at 37° C. in Dulbecco's modified Eagle's medium (DMEM; Gibco BRL) supplemented with 10% fetal bovine serum (FBS; Hyclone) and 100 U/ml penicillin and 100 μg/ml streptomycin (Gibco BRL), and split 1:4 using 0.05% trypsin at 80% confluency. Myoblasts were diluted and placed in a 9 cm dish. Cells were cultured to achieve 80-90% confluency and refreshed with […] (2% FBS/DMEM) every 24 hours for 5-7 days. The term “confluency” refers to the proportion of the surface of a culture dish that is covered by adherent cells growing in the dish. 100% confluency refers to complete coverage of the surface by the cells.
(§2) Differentiated C2C12 cells were serum-starved in DMEM/BSA at 37° C. for 2 hours prior to incubation with AnK (at 1, 5, 10, and 25 μg/mL) or vehicle (0.2% dimethyl sulfoxide (DMSO) in saline) for 30 min or with 100 nM insulin for 25 min.
The C2C12 cells of the other group were homogenized in a homogenization buffer having a pH value of about 7.4 and containing 250 mM sucrose, 50 mM Tris, and 0.2 mM edetic acid (EDTA). […]
(§3) Protein concentrations were determined via BCA assay (Pierce). […]
(§4) SDS polyacrylamide gel electrophoresis (SDS-PAGE) and Western blotting. Proteins were detected with antibodies specific for GLUT4, Akt, phospho-Akt (Ser^473), AMPK, and phospho-AMPK (Thr^172).

[1] = tested on: human liver cancer Hep3B cells; conditions: cited from earlier work
[2] = tested on: phospho-AMPK (Thr^172)/total-AMPK; assay: AMPK phosphorylation in C2C12 cells (Western blotting); format: cell-based; conditions: AnK 1, 5, 10 and 25 μg/mL 30 min, insulin 100 nM 25 min, vs CON group
Method: as §1, §2
The abovementioned C2C12 cells were then washed three times with phosphate buffered saline (PBS) and divided into two groups. […]
as §3, §4

[3] = tested on: high-fat diet-fed C57BL/6J mouse; assay: Histopathology of epididymal white adipose tissue (adipocyte hypertrophy); format: in vivo, C57BL/6J mice; conditions: mean area of epididymal adipocyte, HFD-fed mice
Method: Animal studies were performed and approved under the guidelines of the Institutional Animal Care and Use Committee in Taiwan (12 Mar. 2015). The 4-week old male C57BL/6J mice (total amount n=63) were obtained from the National Laboratory Animal Center (Taipei, Taiwan). After acclimatization for one week, all of the mice were randomly assigned into a control (CON) group and a high-fat diet (HFD) group. For the following 12 weeks, the CON group (n=9) received a control diet or a low-fat diet (Diet 12450B, Research Diets, Inc., New Brunswick, N.J., USA), while the HFD group (n=54) received a high-fat diet (Diet 12451, Research Diets, New Brunswick, N.J., USA). The low-fat diet was composed of protein 20%, carbohydrate 70% and fat 10%, whereas the high-fat diet was composed of protein 20%, carbohydrate 35%, and fat 45% (of total energy, % kcal). After HFD feeding for 8 weeks, the HFD group was randomly subdivided into six groups (n=9 per group) receiving different treatments and fed on HFD. […] The HF+AnK1, HF+AnK2, and HF+AnK3 groups are collectively termed AnK-treated HFD groups in the following examples. The CON mice were administered vehicle. All treatments were administered via oral gavage once daily. After administration for 4 weeks, all mice were fasted 12 hours, and blood was collected from the retro-orbital sinus under ether anesthesia. At the end of the experiment, the mice were sacrificed via carbon dioxide inhalation. Liver, adipose tissue, and skeletal muscle were collected and immediately stored at −80° C. for target gene analysis.
Parts of visceral adipose and liver specimens were fixed with formalin (200 g/kg) neutral buffered solution and embedded in paraffin. A series of 8 μm-thick sections was cut and stained with hematoxylin and eosin. For microscopic examination, a microscope (Olympus BX51, Olympus, Tokyo, Japan) was used and the images were photographed.
Adipocyte hypertrophy, the pathological enlargement of adipocytes, is often found in subjects with type 2 diabetes and hyperlipidemia. To verify the therapeutic effect of AnK on adipocyte hypertrophy, morphology of the epididymal white adipose tissue from mice of the HF group and the AnK-treated HFD groups was examined. Micrographs (magnification 200X) of the EWAT sections for each group were shown in FIG. 4 and analyzed to determine the mean area of an epididymal adipocyte.

human neutrophils = conditions: concentration-dependent 1˜25 mM; induced by fMLP and TPA in human neutrophils; cited from earlier work

Structure (SMILES)	protein expression of membrane GLUT4 (membrane GLUT4)	apoptotic cell death [1]	expression ratio of phospho-AMPK (p-AMPK) to total-AMPK (t-AMPK) [2]	Adipocyte size ([3]; HF + AnK1: AnK 10 mg/kg/day oral gavage 4 weeks)	Adipocyte size ([3]; HF + AnK2: AnK 20 mg/kg/day oral gavage 4 weeks)	Adipocyte size ([3]; HF + AnK3: AnK 40 mg/kg/day oral gavage 4 weeks)	anti-inflammatory effects (modulation of leukocyte activity, inhibition of reactive oxygen species production) (human neutrophils)	Adipocyte size ([3]; HF + Metf: metformin 300 mg/kg/day oral gavage 4 weeks)
C=C(CC[C@@H](C)[C@H]1CC[C@H]2C3=C(C(=O)C[C@]12C)[C@@]1(C)CC[C@@H](O)[C@](C)(O)[C@@H]1C[C@@H]3O)C(C)C(=O)O (stereo partly drawn) [AnK, 3α,4β,7β-trihydroxy-4α-methylergosta-8,24(28)-dien-11-on-25S-26-oic acid]	enhanced	inducing apoptotic cell death	higher	6548.6 ± 214.7 μm^2	6483.8 ± 319.8 μm^2	5670.8 ± 281.6 μm^2	anti-inflammatory effects	
CN(C)C(=N)N=C(N)N [Metf, metformin, reference compound]								5873.7 ± 345.1 μm^2
